Assay results published in patent US20110269834A1 (priority 2008, published 2011).
Where two headings read alike, the source gives them in different places.

Key:
[1] = system: SARS-CoV; experiment: microbe, parasite or virus in culture; assay type: cell-based, SARS-CoV Urbani strain
[2] = target: T1, SARS-CoV PLpro (Severe acute respiratory syndrome coronavirus, UniProt P0C6X7); experiment: biochemical; details: read-out: percent inhibition of PLpro in primary screen
[3] = target: T1, SARS-CoV PLpro; experiment: biochemical; details: for inhibition at 100 µM: read-out: inhibition of PLpro activity
[4] = target: T2, hUCH-L1 (Homo sapiens, UniProt P09936); experiment: Inhibitor specificity assay, UCH-L1; assay type: biochemical; details: Table 6; assayed with 100 μM inhibitor, ubiquitin-AMC substrate
T2 construct: purchased Biomol International
T2 sequence (P09936 1-223): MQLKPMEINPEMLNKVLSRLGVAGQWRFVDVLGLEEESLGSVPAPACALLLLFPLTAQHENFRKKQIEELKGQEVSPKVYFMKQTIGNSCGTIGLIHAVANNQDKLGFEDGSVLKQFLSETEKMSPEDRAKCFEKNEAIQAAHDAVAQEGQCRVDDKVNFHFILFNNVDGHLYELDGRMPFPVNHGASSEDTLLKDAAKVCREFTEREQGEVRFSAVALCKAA

[5] = system: Vero E6 cells
[6] = target: T3, hUCH-L3 (Homo sapiens, UniProt P15374); experiment: Inhibitor specificity assay, UCH-L3; assay type: biochemical; details: Table 6; assayed with 100 μM inhibitor, ubiquitin-AMC substrate
T3 construct: purchased Biomol International
T3 sequence (P15374 1-230): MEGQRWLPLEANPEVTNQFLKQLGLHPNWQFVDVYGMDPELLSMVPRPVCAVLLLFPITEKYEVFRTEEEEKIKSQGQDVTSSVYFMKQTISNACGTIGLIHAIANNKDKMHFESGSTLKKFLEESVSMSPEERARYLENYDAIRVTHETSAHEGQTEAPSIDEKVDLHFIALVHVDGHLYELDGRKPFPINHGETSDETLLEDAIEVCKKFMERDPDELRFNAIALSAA

[7] = target: T1, SARS-CoV PLpro; assay type: biochemical
[8] = target: T4, hUSP18 (Homo sapiens, UniProt Q9UMW8); experiment: Inhibitor specificity assay, USP18; assay type: biochemical; details: Table 6; assayed with 100 μM inhibitor, ISG15-AMC substrate
T4 construct: purchased Boston Biochem
T4 sequence (Q9UMW8 1-372): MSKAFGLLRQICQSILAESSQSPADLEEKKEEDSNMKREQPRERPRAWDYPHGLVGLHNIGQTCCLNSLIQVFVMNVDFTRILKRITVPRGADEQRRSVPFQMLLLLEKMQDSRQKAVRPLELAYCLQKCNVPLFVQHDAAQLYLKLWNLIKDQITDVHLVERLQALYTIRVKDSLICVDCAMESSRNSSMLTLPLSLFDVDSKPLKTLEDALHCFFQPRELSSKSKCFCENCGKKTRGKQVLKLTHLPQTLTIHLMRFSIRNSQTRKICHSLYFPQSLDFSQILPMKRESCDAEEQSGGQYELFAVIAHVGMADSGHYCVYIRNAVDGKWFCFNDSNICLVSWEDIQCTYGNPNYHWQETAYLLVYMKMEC

[9] = target: T1, SARS-CoV PLpro; assay type: biochemical; remark: listed apart in the source
[10] = target: T5, HAUSP (Homo sapiens, UniProt Q93009); experiment: Inhibitor specificity assay, HAUSP; assay type: biochemical; details: Table 6; assayed with 100 μM inhibitor, ubiquitin-AMC substrate
T5 construct: purchased Boston Biochem
T5 sequence (Q93009 whole entry): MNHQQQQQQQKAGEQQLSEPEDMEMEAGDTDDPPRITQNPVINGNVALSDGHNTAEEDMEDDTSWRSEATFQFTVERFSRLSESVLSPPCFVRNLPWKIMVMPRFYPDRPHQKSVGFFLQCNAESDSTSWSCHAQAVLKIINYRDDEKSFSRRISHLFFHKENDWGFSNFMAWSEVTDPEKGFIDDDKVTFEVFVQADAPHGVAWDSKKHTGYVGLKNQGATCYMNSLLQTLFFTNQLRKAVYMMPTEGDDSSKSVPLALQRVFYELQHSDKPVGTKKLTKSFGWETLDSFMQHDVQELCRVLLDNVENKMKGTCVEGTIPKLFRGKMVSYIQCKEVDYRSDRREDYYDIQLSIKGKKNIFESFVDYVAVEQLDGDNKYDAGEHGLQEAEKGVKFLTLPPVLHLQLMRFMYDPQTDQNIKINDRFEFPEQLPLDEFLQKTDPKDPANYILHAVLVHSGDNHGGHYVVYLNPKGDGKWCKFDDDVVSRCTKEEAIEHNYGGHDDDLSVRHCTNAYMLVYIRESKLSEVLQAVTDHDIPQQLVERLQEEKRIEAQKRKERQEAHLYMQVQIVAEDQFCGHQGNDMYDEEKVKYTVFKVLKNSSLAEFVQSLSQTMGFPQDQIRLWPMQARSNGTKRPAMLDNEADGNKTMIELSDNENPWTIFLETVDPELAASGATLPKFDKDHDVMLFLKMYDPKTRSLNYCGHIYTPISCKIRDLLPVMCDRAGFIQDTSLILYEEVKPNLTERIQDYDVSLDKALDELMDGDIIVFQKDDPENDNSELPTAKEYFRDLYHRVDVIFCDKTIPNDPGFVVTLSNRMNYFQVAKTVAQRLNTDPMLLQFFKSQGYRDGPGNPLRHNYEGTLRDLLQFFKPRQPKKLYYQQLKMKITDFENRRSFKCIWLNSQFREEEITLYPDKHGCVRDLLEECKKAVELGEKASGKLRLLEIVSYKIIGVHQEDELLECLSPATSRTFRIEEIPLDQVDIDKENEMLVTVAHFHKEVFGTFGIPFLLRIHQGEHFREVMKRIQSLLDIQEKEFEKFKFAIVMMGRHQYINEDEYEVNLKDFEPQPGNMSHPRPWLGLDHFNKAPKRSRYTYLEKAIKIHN

[11] = Severe acute respiratory syndrome coronavirus, Vero C1008
[12] = Severe acute respiratory syndrome coronavirus, Vero C1008, 48 h, read-out: EC50 of antiviral activity
[13] = read-out: IC50 (μM), enzyme inhibitory activity

5-Methylamino-2-methyl-N—[(R)-1-(1-naphthyl)ethyl]benzamide [Compound 2]
EC50 ([1]; Table 5, antiviral activity against SARS-CoV, highest concentration tested 50 uM, read-out: EC50): 6 ± 0.1 µM

Cc1ccccc1C(=O)NC(C)c1ccc2ccccc2c1 (racemic) [Compound 1, 2-methyl-N-[1-(2-naphthyl)ethyl]benzamide]
inhibition at 20 µM [2]: > 35%
EC50 [1, 11]: > 50 µM

CCC(NC(=O)c1ccccc1C)c1ccc2ccccc2c1 (racemic) [Compound 14, 2-Methyl-N-[1-(2-naphthyl)propyl]benzamide]
IC50 [3]: > 200 µM

Cc1ccc(N)cc1C(=O)NC(C)c1ccnc2ccccc12 (racemic) [Compound 50]
IC50 [3]: 1.85 µM

Cc1cc([N+](=O)[O-])ccc1C(=O)NC(C)c1ccnc2ccccc12 (racemic) [Compound 51]
IC50 [3]: 3.5 µM

Cc1cc(N)ccc1C(=O)NC(C)c1ccnc2ccccc12 (racemic) [Compound 52]
IC50 [3]: 2.3 µM

Cc1ccccc1C(=O)N[C@@H](C)c1ccc2ccccc2c1 [Compound 1a]
inhibition at 100 µM [3]: 14%

Cc1ccccc1C(=O)N[C@H](C)c1ccc2ccccc2c1 [Compound 1b, 2-Methyl-N—[(R)-1-(2-naphthyl)ethyl]benzamide]
inhibition at 100 µM [3]: > 90%
EC50 [1, 11]: > 50 µM

C[C@@H](NC(=O)c1ccccc1Cl)c1ccc2ccccc2c1 [Compound 3, 2-Chloro-N—[(R)-1-(2-naphthyl)ethyl]benzamide]
IC50 [3]: 14.5 ± 0.9 µM
fold decrease in inhibitory potency compared to 1b [3]: 2 fold
EC50 [1, 11]: > 50 µM

CCc1ccccc1C(=O)N[C@H](C)c1ccc2ccccc2c1 [Compound 4, 2-Ethyl-N—[(R)-1-(2-naphthyl)ethyl]benzamide]
IC50 [3]: > 200 µM

Cc1cccc(C(=O)N[C@H](C)c2ccc3ccccc3c2)c1 [Compound 5a, 3-Methyl-N—[(R)-1-(2-naphthyl)ethyl]benzamide]
EC50 [1, 11]: > 50 µM

C[C@@H](NC(=O)c1ccccc1O)c1ccc2ccccc2c1 [Compound 5g, 2-Hydroxy-N—[(R)-1-(2-naphthyl)ethyl]benzamide]
IC50 [3]: > 200 µM

Cc1ccccc1C(=O)N[C@H](C)c1cccc2ccccc12 [Compound 5h, 2-Methyl-N—[(R)-1-(1-naphthyl)ethyl]benzamide]
IC50 [4]: > 100 µM
EC50 [1, 11]: 10 ± 1.2 µM
EC50 [1, 12]: 10 to 15 µM
toxicity in Vero E6 cells [5]: without toxicity up to the highest concentration tested
IC50 [6]: > 100 µM

Cc1ccc([N+](=O)[O-])cc1C(=O)N[C@H](C)c1cccc2ccccc12 [Compound 5i, 2-Methyl-5-nitro-N—[(R)-1-(1-naphthyl)ethyl]benzamide]
IC50 [3]: 7.3 ± 0.9 µM
fold decrease in activity compared to 5h [3]: ~3 fold
EC50 [1, 11]: > 50 µM

C[C@@H](NC(=O)c1ccc(NC(=O)OC(C)(C)C)cc1)c1ccc2ccccc2c1 [Compound 8, 4-N^0-tert-Butoxycarbonylamino-N—[(R)-1-(2-naphthyl)ethyl]-benzamide]
IC50 [3]: > 200 µM

Cc1ccccc1C(=O)NC(c1ccccc1)c1ccc2ccccc2c1 (stereo not shown) [Compound 17, 2-Methyl-N-[1-(2-naphthyl)benzyl]benzamide]
IC50 [3, 13]: > 200 µM

Cc1ccc(N)cc1C(=O)N[C@H](C)c1cccc2ccccc12 [Compound 24, 5-Amino-2-methyl-N—[(R)-1-(1-naphthyl)ethyl]benzamide]
mode of inhibition [7]: competitive inhibitor
IC50 [8]: > 100 µM
IC50 [4]: > 100 µM
PLpro activity recovered after dialysis [9]: Approximately 25%
toxicity in Vero E6 cells [5]: without toxicity up to the highest concentration tested
IC50 [10]: > 100 µM
IC50 [6]: > 100 µM

CC(=O)Nc1ccc(C)c(C(=O)N[C@H](C)c2cccc3ccccc23)c1 [Compound 25, 5-N-Acetylamino-2-methyl-N—[(R)-1-(1-naphthyl)ethyl]benzamide]
IC50 ([3]; read-out: IC50): 2.64 ± 0.04 µM
IC50 [3, 13]: 2.64 ± 0.04 µM
IC50 ([3]; read-out: IC50 values (μM) PLpro): 2.6 µM
IC50 [4]: > 100 µM
EC50 [1, 11]: 13.1 ± 0.7 µM
EC50 [1, 12]: 10 to 15 µM
toxicity in Vero E6 cells [5]: without toxicity up to the highest concentration tested
IC50 [6]: > 100 µM

Cc1ccc(N)cc1C(=O)NC(C)(C)c1cccc2ccccc12 [Compound 29, 5-Amino-2-methyl-N-[1-methyl-1-(1-naphthyl)ethyl]benzamide]
EC50 [1, 11]: > 50 µM

Cc1ccc(CNC(=O)OC(C)(C)C)cc1C(=O)N[C@H](C)c1cccc2ccccc12 [Compound 47, 5-N-tert-Butoxycarbonylmethylamino-2-methyl-N^0—[(R)-1-(1-naphthyl)ethyl]benzamide]
EC50 [1, 11]: > 50 µM

CNCc1ccc(C)c(C(=O)N[C@H](C)c2cccc3ccccc23)c1 [Compound 49]
EC50 [1, 11]: 5.2 ± 0.3 µM

COc1cccc(CNC(=O)C2CCN([C@@H](C)c3ccc4ccccc4c3)CC2)c1 [Compound 61]
IC50 [3]: 13.2 ± 0.6 µM
EC50 [1, 11]: 12 µM

COc1cccc(CNC(=O)C2CCN([C@H](C)c3ccc4ccccc4c3)CC2)c1 [Compound 62]
IC50 [3]: 5.8 ± 0.1 µM

COc1ccc(CNC(=O)C2CCN([C@H](C)c3cccc4ccccc34)CC2)cc1 [Compound 63]
IC50 ([3]; read-out: IC50): 0.34 µM
EC50 [1, 11]: 10 µM

COc1cccc(CNC(=O)C2CCN([C@H](C)c3cccc4ccccc34)CC2)c1 [Compound 64]
IC50 ([3]; read-out: IC50): 0.34 µM
EC50 [1, 11]: 8 µM

COc1ccccc1CNC(=O)C1CCN([C@H](C)c2cccc3ccccc23)CC1 [Compound 67]
IC50 ([3]; read-out: IC50): 1.21 ± 0.04 µM

C[C@@H](c1cccc2ccccc12)N1CCC(C(=O)NCc2ccc3c(c2)OCO3)CC1 [Compound 68]
IC50 ([3]; read-out: IC50): 0.56 µM
EC50 [1, 11]: 3 µM

C[C@H](c1cccc2ccccc12)N1CCC(C(=O)NCc2ccc3c(c2)OCO3)CC1 [Compound 69]
EC50 [1, 11]: 3 µM
